According to the NIST ThermoML archive (doi:10.1021/je2003622):
Numbers after ± are expanded uncertainties.

Columns and labels:
[1] = wn = mass fraction of the nth substance listed; settings: 101 kPa, Liquid
[2] = mn = molality of the nth substance listed, in mol/kg; settings: 101 kPa, Liquid

For CO [methanol] + O, the mass density ([1]; 298.15 K, w1 = 0.0806) was 982.97 ± 1.5 kg/m3, the viscosity ([1]; 298.15 K, w1 = 0.0806) was 1.084 ± 0.051 mPa·s and the mass density ([1]; 298.15 K, w1 = 0.1647) was 969.63 ± 1.4 kg/m3. The viscosity ([1]; 298.15 K, w1 = 0.1647) was 1.311 ± 0.061 mPa·s, the mass density ([1]; 298.15 K, w1 = 0.2526) was 956.2 ± 1.4 kg/m3 and the viscosity ([1]; 298.15 K, w1 = 0.2526) was 1.471 ± 0.068 mPa·s. It also gave a mass density ([1]; 298.15 K, w1 = 0.3446) of 939.57 ± 1.4 kg/m3, a viscosity ([1]; 298.15 K, w1 = 0.3446) of 1.448 ± 0.067 mPa·s and a mass density ([1]; 308.15 K, w1 = 0.0806) of 979.73 ± 1.6 kg/m3. The viscosity ([1]; 308.15 K, w1 = 0.0806) was 0.8665 ± 0.042 mPa·s, the mass density ([1]; 308.15 K, w1 = 0.1647) was 966.32 ± 1.6 kg/m3 and the viscosity ([1]; 308.15 K, w1 = 0.1647) was 1.022 ± 0.049 mPa·s. It also gave a mass density ([1]; 308.15 K, w1 = 0.2526) of 951.6 ± 1.6 kg/m3, a viscosity ([1]; 308.15 K, w1 = 0.2526) of 1.142 ± 0.054 mPa·s and a mass density ([1]; 308.15 K, w1 = 0.3446) of 933.64 ± 1.5 kg/m3. The viscosity ([1]; 308.15 K, w1 = 0.3446) was 1.203 ± 0.056 mPa·s, the mass density ([1]; 318.15 K, w1 = 0.0806) was 976.04 ± 1.7 kg/m3 and the viscosity ([1]; 318.15 K, w1 = 0.0806) was 0.7017 ± 0.036 mPa·s. For the same molecule, the mass density ([1]; 318.15 K, w1 = 0.1647) was 961.62 ± 1.7 kg/m3, the viscosity ([1]; 318.15 K, w1 = 0.1647) was 0.8075 ± 0.04 mPa·s and the mass density ([1]; 318.15 K, w1 = 0.2526) was 946.26 ± 1.7 kg/m3. For the same molecule, the viscosity ([1]; 318.15 K, w1 = 0.2526) was 0.8957 ± 0.044 mPa·s, the mass density ([1]; 318.15 K, w1 = 0.3446) was 931.4 ± 1.7 kg/m3 and the viscosity ([1]; 318.15 K, w1 = 0.3446) was 0.9309 ± 0.045 mPa·s. It also gave a mass density ([1]; 323.15 K, w1 = 0.0806) of 974.38 ± 1.8 kg/m3, a viscosity ([1]; 323.15 K, w1 = 0.0806) of 0.6375 ± 0.033 mPa·s and a mass density ([1]; 323.15 K, w1 = 0.1647) of 958.75 ± 1.8 kg/m3. It also gave a viscosity ([1]; 323.15 K, w1 = 0.1647) of 0.73 ± 0.037 mPa·s, a mass density ([1]; 323.15 K, w1 = 0.2526) of 943.31 ± 1.8 kg/m3 and a viscosity ([1]; 323.15 K, w1 = 0.2526) of 0.8052 ± 0.04 mPa·s. It also gave a mass density ([1]; 323.15 K, w1 = 0.3446) of 928 ± 1.8 kg/m3 and a viscosity ([1]; 323.15 K, w1 = 0.3446) of 0.8288 ± 0.041 mPa·s.
CCCCCCCCCCCCOS(=O)(=O)[O-].[Na+] [sodium dodecyl sulfate] + O showed a mass density ([2]; 298.15 K, m1 = 0.03036) of 998.33 ± 2.3 kg/m3, a mass density ([2]; 298.15 K, m1 = 0.04026) of 998.74 ± 2.3 kg/m3 and a mass density ([2]; 298.15 K, m1 = 0.04734) of 999.03 ± 2.3 kg/m3. The mass density ([2]; 298.15 K, m1 = 0.05935) was 999.5 ± 2.3 kg/m3, the mass density ([2]; 298.15 K, m1 = 0.0771) was 1000.24 ± 2.3 kg/m3 and the mass density ([2]; 298.15 K, m1 = 0.08753) was 1000.63 ± 2.3 kg/m3. It also gave a mass density ([2]; 298.15 K, m1 = 0.0992) of 1001.07 ± 2.3 kg/m3, a mass density ([2]; 298.15 K, m1 = 0.1159) of 1001.71 ± 2.3 kg/m3 and a mass density ([2]; 308.15 K, m1 = 0.03046) of 995.13 ± 2.4 kg/m3. For the same molecule, the mass density ([2]; 308.15 K, m1 = 0.0404) was 995.48 ± 2.4 kg/m3, the mass density ([2]; 308.15 K, m1 = 0.04749) was 995.73 ± 2.4 kg/m3 and the mass density ([2]; 308.15 K, m1 = 0.05955) was 996.13 ± 2.4 kg/m3. It also gave a mass density ([2]; 308.15 K, m1 = 0.07737) of 996.76 ± 2.4 kg/m3, a mass density ([2]; 308.15 K, m1 = 0.08785) of 997.09 ± 2.5 kg/m3 and a mass density ([2]; 308.15 K, m1 = 0.09957) of 997.46 ± 2.5 kg/m3. For the same molecule, the mass density ([2]; 308.15 K, m1 = 0.1163) was 997.99 ± 2.5 kg/m3, the mass density ([2]; 318.15 K, m1 = 0.03059) was 991.17 ± 2.6 kg/m3 and the mass density ([2]; 318.15 K, m1 = 0.04056) was 991.47 ± 2.6 kg/m3. It also gave a mass density ([2]; 318.15 K, m1 = 0.04769) of 991.69 ± 2.6 kg/m3, a mass density ([2]; 318.15 K, m1 = 0.0598) of 992.03 ± 2.6 kg/m3 and a mass density ([2]; 318.15 K, m1 = 0.07771) of 992.57 ± 2.6 kg/m3. For the same molecule, the mass density ([2]; 318.15 K, m1 = 0.08824) was 992.85 ± 2.6 kg/m3, the mass density ([2]; 318.15 K, m1 = 0.1) was 993.17 ± 2.6 kg/m3 and the mass density ([2]; 318.15 K, m1 = 0.1169) was 993.63 ± 2.6 kg/m3. For the same molecule, the mass density ([2]; 323.15 K, m1 = 0.03066) was 988.91 ± 2.6 kg/m3, the mass density ([2]; 323.15 K, m1 = 0.04066) was 989.19 ± 2.6 kg/m3 and the mass density ([2]; 323.15 K, m1 = 0.0478) was 989.39 ± 2.6 kg/m3. It also gave a mass density ([2]; 323.15 K, m1 = 0.05995) of 989.71 ± 2.6 kg/m3, a mass density ([2]; 323.15 K, m1 = 0.0779) of 990.21 ± 2.6 kg/m3 and a mass density ([2]; 323.15 K, m1 = 0.08845) of 990.47 ± 2.6 kg/m3. The mass density ([2]; 323.15 K, m1 = 0.1003) was 990.76 ± 2.6 kg/m3 and the mass density ([2]; 323.15 K, m1 = 0.1172) was 991.18 ± 2.6 kg/m3.
